# Experiments:
# [1] = test system: triglycerides, LDL cholesterol, and total cholesterol, biomarkers of OCT1 activity; experiment: UCSF EHR analysis: lipid levels in patients with HIV, on vs off drug; type: in vivo, human
# [2] = test system: transporters at major organ sites; experiment: Prediction of transporter-mediated inhibition / DDI potential; parameters: species or system human; details: of 11 transporters; FDA criteria
# [3] = target: T1, human OCT1 (Homo sapiens, UniProt O15245); experiment: cell-based
# T1 sequence (O15245 1-554): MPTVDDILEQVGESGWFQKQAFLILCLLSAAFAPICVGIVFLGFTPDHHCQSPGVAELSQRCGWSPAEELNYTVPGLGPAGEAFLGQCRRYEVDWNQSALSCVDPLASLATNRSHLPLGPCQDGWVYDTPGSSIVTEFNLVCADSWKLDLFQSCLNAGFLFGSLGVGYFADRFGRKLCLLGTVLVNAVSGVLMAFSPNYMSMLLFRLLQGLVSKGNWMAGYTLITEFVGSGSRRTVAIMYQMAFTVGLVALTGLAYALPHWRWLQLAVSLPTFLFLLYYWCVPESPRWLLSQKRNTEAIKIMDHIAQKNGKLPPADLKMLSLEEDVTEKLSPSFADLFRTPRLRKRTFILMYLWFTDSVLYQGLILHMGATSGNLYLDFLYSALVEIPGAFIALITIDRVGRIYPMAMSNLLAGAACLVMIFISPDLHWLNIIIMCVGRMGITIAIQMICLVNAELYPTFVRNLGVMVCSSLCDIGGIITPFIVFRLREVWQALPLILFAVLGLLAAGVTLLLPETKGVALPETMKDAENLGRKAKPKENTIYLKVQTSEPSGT
# [4] = target: T2, human MATE1 (Homo sapiens, UniProt Q96FL8); experiment: cell-based
# T2 sequence (Q96FL8 1-570): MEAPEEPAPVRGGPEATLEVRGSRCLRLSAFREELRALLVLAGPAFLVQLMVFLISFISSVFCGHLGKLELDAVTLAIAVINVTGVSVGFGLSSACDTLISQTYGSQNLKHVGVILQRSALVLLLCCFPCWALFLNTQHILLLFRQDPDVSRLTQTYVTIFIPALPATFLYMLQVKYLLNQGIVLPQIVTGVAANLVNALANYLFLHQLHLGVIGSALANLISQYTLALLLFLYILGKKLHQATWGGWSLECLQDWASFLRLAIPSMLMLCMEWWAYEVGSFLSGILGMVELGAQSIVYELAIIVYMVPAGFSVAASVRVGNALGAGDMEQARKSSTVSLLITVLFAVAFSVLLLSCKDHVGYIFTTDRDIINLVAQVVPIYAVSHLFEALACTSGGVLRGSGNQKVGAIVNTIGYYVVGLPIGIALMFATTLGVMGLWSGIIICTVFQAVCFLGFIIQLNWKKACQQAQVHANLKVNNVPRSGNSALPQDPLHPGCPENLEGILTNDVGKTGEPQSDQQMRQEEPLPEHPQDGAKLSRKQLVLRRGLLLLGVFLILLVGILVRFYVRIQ
# [5] = target: human MATE2 (Homo sapiens, UniProt Q86VL8); experiment: cell-based
# [6] = target: T3, human OAT1 (Homo sapiens, UniProt Q4U2R8); experiment: cell-based
# T3 sequence (Q4U2R8 1-563): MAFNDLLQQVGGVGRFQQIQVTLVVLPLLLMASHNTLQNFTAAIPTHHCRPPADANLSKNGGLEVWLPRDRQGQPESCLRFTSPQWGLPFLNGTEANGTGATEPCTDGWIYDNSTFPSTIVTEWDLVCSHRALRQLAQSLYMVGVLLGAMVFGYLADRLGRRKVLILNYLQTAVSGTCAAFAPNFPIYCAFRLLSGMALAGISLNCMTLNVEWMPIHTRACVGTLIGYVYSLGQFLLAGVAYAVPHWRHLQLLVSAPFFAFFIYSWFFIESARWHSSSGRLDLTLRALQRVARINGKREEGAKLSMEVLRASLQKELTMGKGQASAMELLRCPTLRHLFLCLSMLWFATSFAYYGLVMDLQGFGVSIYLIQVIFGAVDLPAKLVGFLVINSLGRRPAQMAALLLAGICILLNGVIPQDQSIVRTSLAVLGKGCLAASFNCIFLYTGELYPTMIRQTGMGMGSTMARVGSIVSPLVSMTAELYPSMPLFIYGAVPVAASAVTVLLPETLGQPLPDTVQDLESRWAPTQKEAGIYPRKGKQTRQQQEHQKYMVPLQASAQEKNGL
# [7] = target: T4, human OAT3 (Homo sapiens, UniProt Q8TCC7); experiment: cell-based
# T4 sequence (Q8TCC7 1-542): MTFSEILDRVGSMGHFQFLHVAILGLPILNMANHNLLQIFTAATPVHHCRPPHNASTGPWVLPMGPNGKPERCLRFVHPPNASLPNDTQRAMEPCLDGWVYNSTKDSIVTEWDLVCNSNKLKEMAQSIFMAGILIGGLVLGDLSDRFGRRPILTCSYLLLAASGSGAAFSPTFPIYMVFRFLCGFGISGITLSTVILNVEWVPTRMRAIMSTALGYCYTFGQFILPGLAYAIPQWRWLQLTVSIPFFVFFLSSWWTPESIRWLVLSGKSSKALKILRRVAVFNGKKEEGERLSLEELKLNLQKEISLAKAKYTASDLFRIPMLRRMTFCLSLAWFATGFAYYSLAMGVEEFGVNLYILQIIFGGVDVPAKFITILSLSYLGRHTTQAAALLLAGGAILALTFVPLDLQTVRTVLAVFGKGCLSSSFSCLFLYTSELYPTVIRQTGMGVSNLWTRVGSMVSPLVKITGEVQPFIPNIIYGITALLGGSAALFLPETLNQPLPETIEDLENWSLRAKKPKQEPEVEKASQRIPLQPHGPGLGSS
# [8] = target: P-gp (Homo sapiens, UniProt P08183); experiment: biochemical
# [9] = target: T5, BCRP (Homo sapiens, UniProt Q9UNQ0); experiment: biochemical
# T5 sequence (Q9UNQ0 1-655): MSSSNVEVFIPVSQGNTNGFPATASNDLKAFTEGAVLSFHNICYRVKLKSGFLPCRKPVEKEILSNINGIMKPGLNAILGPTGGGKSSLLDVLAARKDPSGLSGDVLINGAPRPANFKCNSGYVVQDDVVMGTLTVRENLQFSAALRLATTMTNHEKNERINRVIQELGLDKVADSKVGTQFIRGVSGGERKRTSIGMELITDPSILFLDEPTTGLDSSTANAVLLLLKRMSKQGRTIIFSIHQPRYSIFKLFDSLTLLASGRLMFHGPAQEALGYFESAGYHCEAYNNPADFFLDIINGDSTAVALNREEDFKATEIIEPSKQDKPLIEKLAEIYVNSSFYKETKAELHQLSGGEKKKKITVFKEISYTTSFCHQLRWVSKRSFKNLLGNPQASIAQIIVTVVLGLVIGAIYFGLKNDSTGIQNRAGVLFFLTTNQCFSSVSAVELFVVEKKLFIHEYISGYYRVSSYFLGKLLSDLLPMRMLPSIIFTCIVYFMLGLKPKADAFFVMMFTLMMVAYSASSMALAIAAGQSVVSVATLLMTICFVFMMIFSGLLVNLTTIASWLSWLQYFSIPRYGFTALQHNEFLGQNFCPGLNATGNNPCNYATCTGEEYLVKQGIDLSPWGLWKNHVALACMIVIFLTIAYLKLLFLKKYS
# [10] = target: T4, human OAT3; details: human
# Chain of P-gp (P08183 whole entry): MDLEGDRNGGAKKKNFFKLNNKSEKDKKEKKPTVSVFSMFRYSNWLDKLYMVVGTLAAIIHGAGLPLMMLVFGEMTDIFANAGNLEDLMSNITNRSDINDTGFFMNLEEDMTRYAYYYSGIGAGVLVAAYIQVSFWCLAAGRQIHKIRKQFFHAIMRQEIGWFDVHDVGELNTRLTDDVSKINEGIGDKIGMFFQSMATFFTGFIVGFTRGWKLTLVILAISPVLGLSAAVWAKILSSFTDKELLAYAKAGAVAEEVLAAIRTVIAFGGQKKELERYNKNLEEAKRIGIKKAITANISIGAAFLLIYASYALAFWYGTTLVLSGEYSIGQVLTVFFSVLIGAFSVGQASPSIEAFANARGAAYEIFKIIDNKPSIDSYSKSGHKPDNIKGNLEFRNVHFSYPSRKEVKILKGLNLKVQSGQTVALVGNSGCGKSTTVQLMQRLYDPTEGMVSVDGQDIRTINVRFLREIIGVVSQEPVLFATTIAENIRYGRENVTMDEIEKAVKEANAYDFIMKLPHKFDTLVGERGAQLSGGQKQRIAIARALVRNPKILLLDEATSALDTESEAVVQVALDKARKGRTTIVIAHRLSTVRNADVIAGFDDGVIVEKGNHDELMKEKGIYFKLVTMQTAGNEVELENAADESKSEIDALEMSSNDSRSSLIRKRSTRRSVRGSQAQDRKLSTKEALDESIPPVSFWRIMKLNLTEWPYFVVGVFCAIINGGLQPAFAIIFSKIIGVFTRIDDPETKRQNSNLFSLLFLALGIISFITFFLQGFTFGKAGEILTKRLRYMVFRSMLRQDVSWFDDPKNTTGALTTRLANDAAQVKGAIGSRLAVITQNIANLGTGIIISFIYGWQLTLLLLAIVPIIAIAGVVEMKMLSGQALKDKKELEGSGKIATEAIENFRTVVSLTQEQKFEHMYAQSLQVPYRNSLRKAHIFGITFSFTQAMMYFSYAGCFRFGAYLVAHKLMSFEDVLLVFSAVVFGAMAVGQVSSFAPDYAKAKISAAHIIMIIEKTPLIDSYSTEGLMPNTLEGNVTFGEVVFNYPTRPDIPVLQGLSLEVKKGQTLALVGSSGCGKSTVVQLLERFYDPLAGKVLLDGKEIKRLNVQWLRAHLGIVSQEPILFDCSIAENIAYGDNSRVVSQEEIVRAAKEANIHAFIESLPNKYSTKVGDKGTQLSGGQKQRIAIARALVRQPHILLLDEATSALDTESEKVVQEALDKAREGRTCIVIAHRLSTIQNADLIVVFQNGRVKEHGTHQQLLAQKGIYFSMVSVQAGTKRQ
# Chain of human MATE2 (Q86VL8 1-566 isoform Q86VL8-3): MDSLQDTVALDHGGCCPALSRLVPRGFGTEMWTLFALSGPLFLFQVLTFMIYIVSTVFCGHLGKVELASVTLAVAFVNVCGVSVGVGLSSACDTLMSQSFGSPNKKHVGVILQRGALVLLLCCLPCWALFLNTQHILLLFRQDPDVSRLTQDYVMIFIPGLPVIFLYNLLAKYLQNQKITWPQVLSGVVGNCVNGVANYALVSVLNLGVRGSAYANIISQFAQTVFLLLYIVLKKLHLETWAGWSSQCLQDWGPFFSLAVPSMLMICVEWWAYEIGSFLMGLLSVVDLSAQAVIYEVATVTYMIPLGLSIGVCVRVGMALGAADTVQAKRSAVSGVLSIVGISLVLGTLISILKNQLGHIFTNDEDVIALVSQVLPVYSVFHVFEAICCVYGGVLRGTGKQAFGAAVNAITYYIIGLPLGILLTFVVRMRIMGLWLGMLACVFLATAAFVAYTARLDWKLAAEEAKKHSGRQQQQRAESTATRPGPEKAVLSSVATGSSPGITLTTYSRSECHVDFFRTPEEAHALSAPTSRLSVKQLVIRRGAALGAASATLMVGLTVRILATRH
SMILES,"LDL cholesterol, Average On drug ([1]; matched 1:1, n=719 each, off drug 99.5, P 0.0033)","Triglyceride, Average On drug ([1]; matched 1:1, n=782 each, off drug 162, P 7.8E-12)","Total cholesterol, Average On drug ([1]; matched 1:1, n=803 each, off drug 168, P 3.1E-13)","LDL cholesterol, Median On drug ([1]; matched 1:1, off drug 96)","Triglyceride, Median On drug ([1]; matched 1:1, off drug 124)","Total cholesterol, Median On drug ([1]; matched 1:1, off drug 165)",No. of transporters at major organ sites inhibited at clinical concentrations [2],IC50 [3],IC50 [4],IC50 [5],IC50 [6],IC50 [7],IC50 [8],IC50 [9],"Cu,max/IC50 OAT3 [10]"
CC(C)c1nc(CN(C)C(=O)N[C@H](C(=O)N[C@@H](Cc2ccccc2)C[C@H](O)[C@H](Cc2ccccc2)NC(=O)OCc2cncs2)C(C)C)cs1 [Ritonavir],106/99.5 mg/dL,252/162 mg/dL,190/168 mg/dL,101/96 mg/dL,156/124 mg/dL,182/165 mg/dL,,,,,,,,,
NC(=O)c1ncn([C@@H]2O[C@H](CO)[C@@H](O)[C@H]2O)n1 [Ribavirin],,,,,,,2,> 100 µM,> 100 µM,> 100 µM,99 µM,> 100 µM,47 µM,> 100 µM,
COc1cc2c(c(OC)c1OC)-c1ccc(OC)c(=O)cc1[C@@H](NC(C)=O)CC2 [Colchicine],,,,,,,,,> 100 µM,> 100 µM,,> 100 µM,42 µM,> 100 µM,
CCCCCCCCc1ccc(CCC(N)(CO)CO)cc1 [Fingolimod],,,,,,,0,> 100 µM,> 100 µM,> 100 µM,64 µM,> 100 µM,89 µM,> 100 µM,
CCOC(=O)C1=C[C@@H](OC(CC)CC)[C@H](NC(C)=O)[C@@H](N)C1 [Oseltamivir],,,,,,,1,> 100 µM,> 100 µM,> 100 µM,90 µM,> 100 µM,44 µM,> 100 µM,
C[C@@H]1CCN(C(=O)CC#N)C[C@@H]1N(C)c1ncnc2[nH]ccc12 [Tofacitinib],,,,,,,1,41.4 ± 13 µM,1 ± 0.5 µM,68.5 ± 6.2 µM,89 µM,51.6 ± 7 µM,> 100 µM,> 100 µM,
CCN(CC)CCCC(C)Nc1ccnc2cc(Cl)ccc12 (stereo not drawn) [Chloroquine],,,,,,,4,10.7 ± 10.4 µM,0.8 ± 0.8 µM,0.7 ± 0.2 µM,> 100 µM,> 100 µM,,,
CCS(=O)(=O)N1CC(CC#N)(n2cc(-c3ncnc4[nH]ccc34)cn2)C1 [Baricitinib],,,,,,,,22.9 ± 18 µM,36 ± 24 µM,6.7 ± 5.6 µM,> 50 µM,12.7 ± 5 µM,> 50 µM,> 50 µM,
O=C1CCC(N2C(=O)c3ccccc3C2=O)C(=O)N1 (stereo not drawn) [Thalidomide],,,,,,,1,> 100 µM,> 100 µM,> 100 µM,> 100 µM,54.6 ± 2.4 µM,65 µM,> 100 µM,0.08
NC(=O)c1nc(F)c[nH]c1=O [Favipiravir],,,,,,,3,> 100 µM,> 100 µM,> 100 µM,52 µM,84.2 ± 19.5 µM,55 µM,> 100 µM,3.21
CCN(CCO)CCCC(C)Nc1ccnc2cc(Cl)ccc12 (stereo not drawn) [Hydroxychloroquine],,,,,,,4,20 ± 15.9 µM,1.9 ± 0.3 µM,0.8 ± 0.1 µM,> 100 µM,> 100 µM,51.8 ± 20.6 µM,> 100 µM,
CN(C)C(=O)COC(=O)Cc1ccc(OC(=O)c2ccc(NC(=N)N)cc2)cc1 [Camostat],,,,,,,1,20.3 ± 21.3 µM,,2 ± 1.3 µM,> 100 µM,> 100 µM,35 µM,> 100 µM,
COc1cc2nc(N3CCN(C(=O)c4ccco4)CC3)nc(N)c2cc1OC [Prazosin],,,,,,,,1.8 ± 2 µM,,2.4 ± 0.9 µM,> 100 µM,,,> 100 µM,
Cc1cccc(C)c1OCC(=O)N[C@@H](Cc1ccccc1)[C@@H](O)C[C@H](Cc1ccccc1)NC(=O)[C@H](C(C)C)N1CCCNC1=O [Lopinavir],,,,,,,5,> 100 µM,22.5 ± 4 µM,25.1 ± 9.6 µM,> 100 µM,> 100 µM,,,

# From PMC8217266 (Clinical Pharmacology and Therapeutics, 2021)
